For assay [1], the target named is T1, Muscarinic acetylcholine receptor M2 (Homo sapiens, UniProt P08172).
T1 sequence (P08172 whole entry): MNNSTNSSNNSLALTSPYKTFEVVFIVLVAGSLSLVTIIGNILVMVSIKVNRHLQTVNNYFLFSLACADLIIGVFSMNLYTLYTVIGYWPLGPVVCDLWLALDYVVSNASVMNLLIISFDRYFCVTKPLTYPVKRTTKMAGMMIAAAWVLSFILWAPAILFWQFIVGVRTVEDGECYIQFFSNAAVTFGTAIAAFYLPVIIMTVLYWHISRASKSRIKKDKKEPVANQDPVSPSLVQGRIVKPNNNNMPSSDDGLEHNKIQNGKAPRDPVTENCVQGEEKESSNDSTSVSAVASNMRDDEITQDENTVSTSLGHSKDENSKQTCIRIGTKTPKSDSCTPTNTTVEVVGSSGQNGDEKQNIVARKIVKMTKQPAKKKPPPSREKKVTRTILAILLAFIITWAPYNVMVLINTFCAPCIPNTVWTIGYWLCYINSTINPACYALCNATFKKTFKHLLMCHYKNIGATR

Assay [2] concerns the target T2, Alpha-2A adrenergic receptor (Homo sapiens, UniProt P08913).
T2 sequence (P08913 whole entry): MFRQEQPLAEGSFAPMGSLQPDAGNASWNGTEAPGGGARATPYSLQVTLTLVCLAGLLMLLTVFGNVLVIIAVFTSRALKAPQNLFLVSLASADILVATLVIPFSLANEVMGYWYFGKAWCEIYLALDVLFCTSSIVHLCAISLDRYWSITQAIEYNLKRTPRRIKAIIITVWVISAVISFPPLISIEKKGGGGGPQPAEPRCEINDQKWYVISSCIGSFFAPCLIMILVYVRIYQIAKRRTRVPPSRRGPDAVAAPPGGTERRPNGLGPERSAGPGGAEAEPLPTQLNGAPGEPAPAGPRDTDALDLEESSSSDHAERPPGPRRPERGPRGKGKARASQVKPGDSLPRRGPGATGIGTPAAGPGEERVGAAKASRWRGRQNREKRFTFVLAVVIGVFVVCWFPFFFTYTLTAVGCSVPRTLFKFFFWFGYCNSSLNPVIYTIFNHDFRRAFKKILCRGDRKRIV
Format: functional, cell-based.

Assay [3] deals with T3, Alpha-1A adrenergic receptor (Homo sapiens, UniProt P35348).
T3 sequence (P35348 whole entry): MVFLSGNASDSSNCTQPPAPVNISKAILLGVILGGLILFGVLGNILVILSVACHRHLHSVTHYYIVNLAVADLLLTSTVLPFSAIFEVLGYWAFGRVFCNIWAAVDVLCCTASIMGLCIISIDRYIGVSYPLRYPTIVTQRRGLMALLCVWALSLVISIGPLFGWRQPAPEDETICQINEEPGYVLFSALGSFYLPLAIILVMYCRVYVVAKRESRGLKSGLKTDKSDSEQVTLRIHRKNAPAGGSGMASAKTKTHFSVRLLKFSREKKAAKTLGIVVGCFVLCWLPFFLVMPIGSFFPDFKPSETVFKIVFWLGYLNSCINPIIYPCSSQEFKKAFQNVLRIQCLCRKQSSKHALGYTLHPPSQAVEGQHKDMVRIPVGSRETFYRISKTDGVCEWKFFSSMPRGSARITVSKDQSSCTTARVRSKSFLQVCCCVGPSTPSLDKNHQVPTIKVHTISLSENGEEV
Format: functional, cell-based.

In another assay the target is D(1A) dopamine receptor (Homo sapiens, UniProt P21728).
D(1A) dopamine receptor, sequence (P21728 whole entry): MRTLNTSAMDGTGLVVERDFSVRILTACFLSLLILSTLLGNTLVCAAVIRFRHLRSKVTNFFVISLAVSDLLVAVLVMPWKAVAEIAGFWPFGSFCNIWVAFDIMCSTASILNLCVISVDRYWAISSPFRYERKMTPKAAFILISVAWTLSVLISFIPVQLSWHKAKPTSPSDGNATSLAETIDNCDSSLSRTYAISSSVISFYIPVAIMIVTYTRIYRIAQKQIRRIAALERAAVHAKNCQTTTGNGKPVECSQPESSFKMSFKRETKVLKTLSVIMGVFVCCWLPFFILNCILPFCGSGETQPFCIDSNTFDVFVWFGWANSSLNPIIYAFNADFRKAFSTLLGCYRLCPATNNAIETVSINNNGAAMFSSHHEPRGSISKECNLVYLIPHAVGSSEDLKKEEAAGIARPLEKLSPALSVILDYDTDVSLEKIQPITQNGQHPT
Assay [4] concerns the target Gamma-aminobutyric acid receptor subunit alpha-1 (Rattus norvegicus, UniProt P62813). Format: functional.
Assay [5] has as its target Voltage-dependent N-type calcium channel subunit alpha-1B (Rattus norvegicus, UniProt Q02294). Format: functional.
Assay [6] has as its target T4, Amine oxidase [flavin-containing] A (Homo sapiens, UniProt P21397).
T4 sequence (P21397 whole entry): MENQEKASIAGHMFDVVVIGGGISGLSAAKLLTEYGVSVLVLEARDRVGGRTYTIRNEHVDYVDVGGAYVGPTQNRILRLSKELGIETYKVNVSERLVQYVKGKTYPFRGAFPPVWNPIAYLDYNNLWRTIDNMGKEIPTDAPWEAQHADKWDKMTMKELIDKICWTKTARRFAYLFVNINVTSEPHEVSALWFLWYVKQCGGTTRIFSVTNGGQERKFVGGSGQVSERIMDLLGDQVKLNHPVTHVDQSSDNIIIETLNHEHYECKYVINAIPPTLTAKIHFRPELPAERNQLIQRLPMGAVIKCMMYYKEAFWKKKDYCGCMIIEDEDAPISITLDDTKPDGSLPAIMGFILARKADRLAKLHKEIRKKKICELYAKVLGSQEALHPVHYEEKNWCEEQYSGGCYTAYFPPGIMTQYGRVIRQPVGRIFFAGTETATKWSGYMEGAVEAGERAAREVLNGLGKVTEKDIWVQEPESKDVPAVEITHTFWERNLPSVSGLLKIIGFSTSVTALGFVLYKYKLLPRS
Format: functional.

Another assay has as its target Cannabinoid receptor 1 (Homo sapiens, UniProt P21554).
Assay [7] addresses T5, Alpha-2B adrenergic receptor (Homo sapiens, UniProt P18089).
T5 sequence (P18089 whole entry): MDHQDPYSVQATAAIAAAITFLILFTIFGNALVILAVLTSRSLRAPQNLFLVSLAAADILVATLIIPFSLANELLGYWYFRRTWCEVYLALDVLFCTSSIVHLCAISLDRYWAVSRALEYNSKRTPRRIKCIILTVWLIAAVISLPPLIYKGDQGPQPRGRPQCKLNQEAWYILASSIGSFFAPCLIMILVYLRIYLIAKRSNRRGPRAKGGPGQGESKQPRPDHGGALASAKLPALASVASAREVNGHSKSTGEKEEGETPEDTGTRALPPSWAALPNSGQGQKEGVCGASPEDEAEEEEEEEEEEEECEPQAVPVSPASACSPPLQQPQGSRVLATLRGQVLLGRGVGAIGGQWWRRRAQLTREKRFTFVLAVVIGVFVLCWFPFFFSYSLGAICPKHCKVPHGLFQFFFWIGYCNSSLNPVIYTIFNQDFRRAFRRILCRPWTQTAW

Assay [8] addresses Beta-2 adrenergic receptor (Homo sapiens, UniProt P07550). Format: functional, cell-based.
Assay [9] has as its target 5-hydroxytryptamine receptor 2A (Homo sapiens, UniProt P28223). Format: functional, cell-based.
The next assay deals with Mu-type opioid receptor (Homo sapiens, UniProt P35372). Kind of assay: biochemical. Format: functional.
Mu-type opioid receptor, sequence (P35372 whole entry): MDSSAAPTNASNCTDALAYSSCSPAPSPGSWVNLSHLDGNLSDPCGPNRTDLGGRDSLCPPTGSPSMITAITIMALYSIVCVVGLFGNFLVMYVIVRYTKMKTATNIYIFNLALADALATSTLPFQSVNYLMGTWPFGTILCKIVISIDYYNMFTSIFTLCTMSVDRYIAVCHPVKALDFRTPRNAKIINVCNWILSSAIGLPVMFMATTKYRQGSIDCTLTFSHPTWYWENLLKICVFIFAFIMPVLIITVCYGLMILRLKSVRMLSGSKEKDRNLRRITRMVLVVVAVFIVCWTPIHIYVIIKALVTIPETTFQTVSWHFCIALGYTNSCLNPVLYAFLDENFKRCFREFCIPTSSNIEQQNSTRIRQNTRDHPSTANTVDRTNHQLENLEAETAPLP

SMILES strings stand for the structures. Where only a bound is given, the exact number is not on record here.
Also: assay procedure not described here.

Cannabinoid receptor 1, sequence (P21554 whole entry): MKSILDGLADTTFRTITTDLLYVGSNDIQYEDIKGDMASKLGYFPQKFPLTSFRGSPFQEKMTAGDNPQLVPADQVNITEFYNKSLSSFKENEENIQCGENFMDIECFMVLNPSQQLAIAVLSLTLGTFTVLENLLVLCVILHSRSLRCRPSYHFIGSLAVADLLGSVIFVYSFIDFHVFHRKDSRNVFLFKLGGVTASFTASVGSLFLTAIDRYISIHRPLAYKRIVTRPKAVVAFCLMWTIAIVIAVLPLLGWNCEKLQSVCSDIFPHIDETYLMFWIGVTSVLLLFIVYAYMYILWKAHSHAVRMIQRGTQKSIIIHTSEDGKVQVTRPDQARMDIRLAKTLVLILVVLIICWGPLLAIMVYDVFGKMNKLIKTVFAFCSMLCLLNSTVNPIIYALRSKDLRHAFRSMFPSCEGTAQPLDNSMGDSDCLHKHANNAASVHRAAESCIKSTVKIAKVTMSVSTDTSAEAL
5-hydroxytryptamine receptor 2A, sequence (P28223 whole entry): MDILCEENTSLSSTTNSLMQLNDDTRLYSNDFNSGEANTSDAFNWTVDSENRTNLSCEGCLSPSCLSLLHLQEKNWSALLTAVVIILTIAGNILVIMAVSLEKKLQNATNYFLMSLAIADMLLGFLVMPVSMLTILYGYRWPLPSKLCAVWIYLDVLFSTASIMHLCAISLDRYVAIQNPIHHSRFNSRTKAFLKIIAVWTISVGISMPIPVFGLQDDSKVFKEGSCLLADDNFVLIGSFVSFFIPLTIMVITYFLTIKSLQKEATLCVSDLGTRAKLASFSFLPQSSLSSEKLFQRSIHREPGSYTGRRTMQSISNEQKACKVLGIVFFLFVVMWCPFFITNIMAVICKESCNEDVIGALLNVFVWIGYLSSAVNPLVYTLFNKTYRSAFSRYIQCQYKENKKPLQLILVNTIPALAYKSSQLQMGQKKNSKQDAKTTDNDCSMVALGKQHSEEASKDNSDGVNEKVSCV
Voltage-dependent N-type calcium channel subunit alpha-1B, sequence (Q02294 whole entry): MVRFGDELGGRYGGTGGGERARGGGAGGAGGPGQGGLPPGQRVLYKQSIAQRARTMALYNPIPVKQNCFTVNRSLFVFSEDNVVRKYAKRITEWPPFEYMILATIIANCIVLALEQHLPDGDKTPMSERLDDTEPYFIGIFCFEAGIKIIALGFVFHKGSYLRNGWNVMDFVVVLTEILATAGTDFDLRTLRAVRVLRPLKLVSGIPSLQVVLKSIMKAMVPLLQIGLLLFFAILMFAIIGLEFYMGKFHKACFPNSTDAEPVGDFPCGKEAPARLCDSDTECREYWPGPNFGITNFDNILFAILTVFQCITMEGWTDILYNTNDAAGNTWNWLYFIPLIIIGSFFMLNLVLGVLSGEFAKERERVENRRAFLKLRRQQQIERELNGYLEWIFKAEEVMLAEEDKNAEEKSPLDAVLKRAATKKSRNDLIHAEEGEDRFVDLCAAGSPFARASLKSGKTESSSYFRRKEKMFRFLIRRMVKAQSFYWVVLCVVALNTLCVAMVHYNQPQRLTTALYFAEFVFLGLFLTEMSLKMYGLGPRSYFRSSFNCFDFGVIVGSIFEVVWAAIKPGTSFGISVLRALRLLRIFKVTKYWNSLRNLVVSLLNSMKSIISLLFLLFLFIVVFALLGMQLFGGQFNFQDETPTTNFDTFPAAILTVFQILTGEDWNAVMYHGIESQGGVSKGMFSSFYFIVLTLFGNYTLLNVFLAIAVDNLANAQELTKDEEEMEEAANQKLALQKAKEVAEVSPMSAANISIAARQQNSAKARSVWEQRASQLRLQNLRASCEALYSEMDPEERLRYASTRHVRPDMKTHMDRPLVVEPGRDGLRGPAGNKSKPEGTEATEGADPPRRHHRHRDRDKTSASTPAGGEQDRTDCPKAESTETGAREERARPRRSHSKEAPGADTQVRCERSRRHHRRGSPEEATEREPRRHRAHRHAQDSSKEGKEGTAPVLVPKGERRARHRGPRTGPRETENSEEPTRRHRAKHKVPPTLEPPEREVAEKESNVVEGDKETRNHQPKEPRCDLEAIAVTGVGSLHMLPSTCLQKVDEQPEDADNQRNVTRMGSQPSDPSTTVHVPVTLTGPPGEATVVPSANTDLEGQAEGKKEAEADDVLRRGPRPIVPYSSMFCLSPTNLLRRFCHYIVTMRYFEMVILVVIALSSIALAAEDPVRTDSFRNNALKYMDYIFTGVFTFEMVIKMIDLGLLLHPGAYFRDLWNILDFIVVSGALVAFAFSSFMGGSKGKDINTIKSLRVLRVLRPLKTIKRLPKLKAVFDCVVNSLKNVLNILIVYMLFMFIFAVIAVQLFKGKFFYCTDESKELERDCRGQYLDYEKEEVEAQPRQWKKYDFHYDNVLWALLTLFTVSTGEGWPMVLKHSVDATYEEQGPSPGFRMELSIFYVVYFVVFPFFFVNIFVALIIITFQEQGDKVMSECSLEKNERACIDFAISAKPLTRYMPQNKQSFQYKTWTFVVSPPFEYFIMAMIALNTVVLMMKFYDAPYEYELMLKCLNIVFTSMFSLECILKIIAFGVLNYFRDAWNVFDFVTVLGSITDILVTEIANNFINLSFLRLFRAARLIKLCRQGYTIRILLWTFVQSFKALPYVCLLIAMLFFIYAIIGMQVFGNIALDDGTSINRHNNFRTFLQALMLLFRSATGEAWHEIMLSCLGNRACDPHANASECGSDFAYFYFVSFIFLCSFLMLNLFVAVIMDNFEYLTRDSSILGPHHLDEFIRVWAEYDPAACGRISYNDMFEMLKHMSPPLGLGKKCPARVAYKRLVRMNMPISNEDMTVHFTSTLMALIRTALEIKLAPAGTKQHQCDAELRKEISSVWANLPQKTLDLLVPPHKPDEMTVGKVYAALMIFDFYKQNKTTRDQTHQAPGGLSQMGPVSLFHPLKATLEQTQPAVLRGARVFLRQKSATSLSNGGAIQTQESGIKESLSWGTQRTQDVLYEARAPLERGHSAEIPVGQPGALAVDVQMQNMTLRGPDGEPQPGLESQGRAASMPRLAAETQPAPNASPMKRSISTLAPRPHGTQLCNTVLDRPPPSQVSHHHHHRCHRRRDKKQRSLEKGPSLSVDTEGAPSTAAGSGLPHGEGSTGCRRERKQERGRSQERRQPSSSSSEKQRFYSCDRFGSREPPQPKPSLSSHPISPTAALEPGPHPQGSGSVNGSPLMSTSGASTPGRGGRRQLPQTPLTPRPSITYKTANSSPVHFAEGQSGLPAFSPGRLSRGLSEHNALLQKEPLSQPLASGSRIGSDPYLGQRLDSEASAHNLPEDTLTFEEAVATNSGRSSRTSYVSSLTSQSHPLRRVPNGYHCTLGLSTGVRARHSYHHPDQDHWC
Gamma-aminobutyric acid receptor subunit alpha-1, sequence (P62813 whole entry): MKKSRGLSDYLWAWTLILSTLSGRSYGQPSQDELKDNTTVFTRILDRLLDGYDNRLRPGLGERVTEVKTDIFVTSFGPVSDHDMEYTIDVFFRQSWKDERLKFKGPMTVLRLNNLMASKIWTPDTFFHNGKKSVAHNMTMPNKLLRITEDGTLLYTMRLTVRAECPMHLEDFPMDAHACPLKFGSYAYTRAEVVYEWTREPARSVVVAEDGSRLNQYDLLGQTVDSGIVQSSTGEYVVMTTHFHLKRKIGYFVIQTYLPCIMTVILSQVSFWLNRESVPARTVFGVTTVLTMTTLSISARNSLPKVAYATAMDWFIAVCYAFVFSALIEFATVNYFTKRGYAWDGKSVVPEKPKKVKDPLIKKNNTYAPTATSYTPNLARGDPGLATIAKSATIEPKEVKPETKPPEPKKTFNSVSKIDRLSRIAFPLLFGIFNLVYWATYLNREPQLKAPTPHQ
Beta-2 adrenergic receptor, sequence (P07550 whole entry): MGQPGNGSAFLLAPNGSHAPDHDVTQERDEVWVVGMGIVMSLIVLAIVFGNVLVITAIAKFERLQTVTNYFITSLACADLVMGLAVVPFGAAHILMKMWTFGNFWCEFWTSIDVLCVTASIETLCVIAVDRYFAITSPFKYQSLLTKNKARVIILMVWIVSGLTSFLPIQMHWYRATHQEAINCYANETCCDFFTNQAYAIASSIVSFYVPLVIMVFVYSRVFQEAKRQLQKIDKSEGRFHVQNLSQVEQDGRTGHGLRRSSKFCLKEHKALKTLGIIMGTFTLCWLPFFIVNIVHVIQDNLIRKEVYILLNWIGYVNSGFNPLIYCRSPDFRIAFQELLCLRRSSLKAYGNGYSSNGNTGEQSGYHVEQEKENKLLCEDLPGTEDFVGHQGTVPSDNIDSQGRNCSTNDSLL

For the molecule `CC1=C(CC(=O)O)c2cc(F)ccc2/C1=C\c1ccc([S+](C)[O-])cc1` (stereo unspecified), the AC50 in [1] was > 10 µM; in assay [2], > 10 µM; in [3] it was > 30 µM; on D(1A) dopamine receptor, > 10 µM; in [4] it was > 10 µM; in assay [5] it was > 10 µM. Also, in assay [6], the AC50 was > 10 µM.

For the molecule `O=C(O[C@H]1C[N+]2(CCCOc3ccccc3)CCC1CC2)C(O)(c1cccs1)c1cccs1` [ACLIDINIUM BROMIDE], the AC50 (on D(1A) dopamine receptor; at Cannabinoid receptor 1; in assay [7]; in assay [4]; in assay [5]; in assay [6]) was > 10 µM in each case.

On to `CCN(CC)CCCN(c1ccccc1)C1Cc2ccccc2C1` [APRINDINE], for which the AC50 in assay [8] was > 30 µM; in [2], > 30 µM; in assay [9] it was 2.89 µM; in assay [3], 14 µM; on Mu-type opioid receptor, > 30 µM; on Cannabinoid receptor 1, > 10 µM. In addition, the AC50 in assay [7], in assay [4] and in assay [6] was > 30 µM throughout.

For the molecule `COc1ccc(C(Cl)=C(c2ccc(OC)cc2)c2ccc(OC)cc2)cc1` [CHLOROTRIANISENE], the AC50 is > 30 µM in [8]; > 30 µM in assay [2]; > 30 µM in assay [9]; 21 µM in assay [3]; > 30 µM at Mu-type opioid receptor; > 10 µM at Cannabinoid receptor 1. Further, the AC50 in [7], in assay [4] and in assay [6] was > 30 µM each time.

Consider `CN(C)CCOC(=O)C(c1ccccc1)C1(O)CCCC1` (stereo unspecified) [CYCLOPENTOLATE], for which the AC50 in assay [1] is 0.624 µM; in [2], > 10 µM; in [9], > 10 µM; on Mu-type opioid receptor, > 30 µM; at Cannabinoid receptor 1, > 10 µM; in assay [7], > 10 µM. Moreover, the values for the AC50 in assay [4] and in [6] were > 10 µM and > 30 µM, respectively.

`CCOC(=O)C1=C(C)NC(C)=C(C(=O)OC)C1c1cccc(Cl)c1Cl` (stereo unspecified) [FELODIPINE]: the AC50 is > 10 µM in [1]; > 10 µM in [2]; > 30 µM in [3]; > 10 µM at D(1A) dopamine receptor; 13.4 µM on Cannabinoid receptor 1; > 10 µM in assay [4]. Moreover, the AC50 in assay [5] and in [6] was > 10 µM throughout.

Turning to `CN1C(=O)CN=C(c2ccccc2F)c2cc([N+](=O)[O-])ccc21` [FLUNITRAZEPAM], the AC50 in assay [1] was > 10 µM; in [2] it was > 10 µM; in assay [3] it was > 30 µM; at D(1A) dopamine receptor it was > 10 µM; on Cannabinoid receptor 1 it was > 10 µM; in [7] it was > 10 µM. Also, the AC50 is 0.0055 µM in [4], > 10 µM in assay [5] and > 10 µM in [6].

For the molecule `COc1ccc2c3c1O[C@H]1C(=O)CC[C@H]4[C@@H](C2)N(C)CC[C@]314` [HYDROCODONE], the AC50 in assay [1] was > 10 µM; in [8], > 30 µM; in assay [2], > 10 µM; in assay [9] it was > 30 µM; in assay [3], > 30 µM; at D(1A) dopamine receptor, > 10 µM. The AC50 in [7], in [4], in [5] and in [6] was > 10 µM each time.

Consider `CC1Cc2ccccc2N1NC(=O)c1ccc(Cl)c(S(N)(=O)=O)c1` (stereo unspecified) [INDAPAMIDE], for which the AC50 was > 30 µM in assay [8]; > 10 µM in assay [2]; > 30 µM in assay [3]; > 10 µM at Cannabinoid receptor 1; > 10 µM in assay [4]; > 10 µM in assay [5]. The AC50 in [6] was > 10 µM.

Turning to `CN1CCC(=C2c3ccccc3CC(=O)c3sccc32)CC1` [KETOTIFEN], the AC50 in [1] is 0.432 µM; in assay [8], > 30 µM; in assay [2], > 10 µM; in [3], 15 µM; at Mu-type opioid receptor, > 30 µM; on Cannabinoid receptor 1, > 10 µM. The AC50 in [4] and in assay [6] was > 10 µM in each case.

The AC50 is the midpoint of the concentration-response curve, whichever way the signal moves.

These data come from ChEMBL document CHEMBL5291721, “A preclinical secondary pharmacology resource illuminates target-adverse drug reaction associations of marketed drugs” (Nat Commun, 2023).
